# Assay results: US6939864B1, “Animal feed compositions and methods of using the same” (Purdue Research Foundation, priority 2001, dated 2005)
# Key:
# [1] = tested on: serum cortisol (CS), ACTH and tumor necrosis factor-alpha (TNF); experiment: Porcine study: serum ACTH, cortisol and TNF, basal and after I.V. LPS challenge; type: in vivo, pigs; conditions: I.V. LPS 150 ug/kg, day 14 postweaning
# From the text: The objective of this study was to evaluate the potential benefit of supplementing the neonatal pig with Vitamin C (VC) and/or Beta-glucan (BG). Thirty-two crossbred pigs were selected at birth and assigned to one of four dietary treatment groups (n=8/group). Beginning on the day of birth, pigs received their respective treatments via an oral gavage on a daily basis until weaning at 2 weeks of age. Dietary treatment groups included Control (Con; no VC or BG), VC (75 ppm), BG (0.312 g/kg body weight) and VC+BG (75 ppm and 0.312 g/kg body weight). After weaning, pigs were placed on a starter ration containing their respective dietary treatments and a Phase 1 diet specific for the University of Missouri Swine unit for a 2 week period. Body weights were recorded every 3 days to adjust dietary treatment doses. On day 14 postweaning, blood samples were collected at 30-min intervals for one hour followed by an I.V. injection of lipopolysaccharide (LPS; 150 ug/kg). LPS is part of bacterial cell walls that initiates the immune response. Blood samples were collected at 30-min intervals for an additional 3-hour period following the LPS challenge. Blood samples were analyzed for serum cortisol (CS), ACTH and tumor necrosis factor-alpha (TNF) which are indicators of acute stress response to challenge (LPS).
# [2] = Calf study: body weight change and fecal scores; type: in vivo, calves; conditions: mean ±SE
# Procedure: Three days after they were born, calves were started on all milk, milk replacer. The calves were assigned randomly to one of four treatment groups control, β-glucan, Vitamin C, and β-glucan and Vitamin C. Each treatment is represented in a block (1 block has 4 calves and each room has 3 blocks). Initial weight and temperature were taken when calves were placed on study, then weekly for six more weeks.
# Fecal scores, nasal and ocular discharges were recorded daily along with room temperature and humidity. Blood samples were taken every week for seven weeks; 10 ml heparinized tube for plasma to measure cortisol and ascorbic acid; 5 ml sodium citrate tube for hematocrits, granulocytes, lymphocytes and fibrinogen.
# Calves were fed milk replacer equaling 10% of their body weight per day, which was given in two equal rations (morning and afternoon). Dry milk replacer was equal to 12.5% of amount fed. Calves on treatment […] were given β-glucan equaling 0.3125% of total intake. Calves on treatment 3 and 4 received 250 mg of Vitamin C twice a day.
Compound,TNF response to the LPS challenge [1],CS response to the LPS challenge ([1]; compared to Con group),Mean BW change ([2]; dairy calves on milk replacer) [kg/wk],"mean fecal scores ([2]; scale of 1–4, 1=solid and 4=fluid)"
"O=C1O[C@H]([C@@H](O)CO)C(O)=C1O [VC, ascorbic acid]",more rapid decline in serum TNF,lower,–,–
ascorbyl-2-polyphosphonate [AA],–,–,1.48±0.12,1.48±0.03
